Values quoted from earlier work as cited in US7610153B2, “Multi-drug titration and evaluation” (Virginia Commonwealth University, priority 2002, dated 2009).

Conditions: literature

- hypoglycemia: does not cause hypoglycemia
Structure (SMILES): CN(C)C(=N)N=C(N)N [metformin]
- decrease in fasting and postprandial glycemia (type 2 diabetes): 60 to 70 mg/dL
